# Experimental data reported in ChEMBL document CHEMBL1123968, “Isoprenoid (phosphinylmethyl)phosphonates as inhibitors of squalene synthetase” (J Med Chem, 1988).
# Biological target: T1, Squalene synthase (Rattus norvegicus, UniProt Q02769)
# T1 sequence (Q02769 whole entry): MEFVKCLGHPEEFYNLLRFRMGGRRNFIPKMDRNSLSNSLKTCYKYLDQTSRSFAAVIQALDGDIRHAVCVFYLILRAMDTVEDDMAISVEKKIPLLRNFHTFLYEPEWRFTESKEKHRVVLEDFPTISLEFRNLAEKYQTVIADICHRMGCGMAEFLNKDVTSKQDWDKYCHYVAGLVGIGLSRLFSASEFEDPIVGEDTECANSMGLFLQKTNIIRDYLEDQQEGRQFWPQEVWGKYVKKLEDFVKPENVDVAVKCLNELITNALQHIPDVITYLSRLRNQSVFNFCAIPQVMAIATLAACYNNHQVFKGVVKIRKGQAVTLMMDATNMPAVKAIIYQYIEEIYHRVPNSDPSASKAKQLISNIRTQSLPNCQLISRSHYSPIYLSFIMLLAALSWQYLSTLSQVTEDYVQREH
# Assay: Inhibition of squalene synthetase was determined in rat liver microsomes
# Set-up: species or system Microsome
# Conditions: read-out: I50
row,IC50 [µM],SMILES
1,67,CC(C)=CCC/C(C)=C/CC/C(C)=C/CCCP(=O)(O)CP(=O)(O)O
2,12.2,CC(C)=CCC/C(C)=C/CC/C(C)=C/C=C/P(=O)(O)CP(=O)(O)O
3,177,COP(=O)(O)CP(=O)(O)CC/C=C(\C)CC/C=C(\C)CCC=C(C)C
4,29.9,CC(C)=CCC/C(C)=C/CC/C(C)=C/CCP(=O)(O)C(F)(F)P(=O)(O)O
5,31.5,CC(C)=CCC/C(C)=C/CC/C(C)=C/CCP(=O)(O)CP(=O)(O)O
6,42,CC(C)=CCC/C(C)=C/CC/C(C)=C/CCP(=O)(O)OP(=O)(O)O
7,15.5,CC(C)=CCC/C(C)=C/CC/C(C)=C/C=C/P(=O)(O)C(F)(F)P(=O)(O)O
